According to patent US6610675B1 (priority 1980, dated 2003):

Legend:
[1] = test system: thymus weight in rats; assay: Thymus inhibition testing (subcutaneous administration); format: in vivo, rat
Experimental: Several further studies were undertaken to determine the effects of selected compounds of the invention on thymi weights in rats when the drugs were systemically administered. In each of these studies, male Sprague-Dawley rats were used. […] On the fifth day (48 hours following the last treatment), the animals were sacrificed and the thymi weights were recorded. […] It is evident that the higher the inhibition of thymus activity at a given dose, the more toxic the compound is.

[2] = test system: granulation tissue formation caused by implantation of cotton pellets; assay: Granuloma formation test (local cotton pellet granuloma assay); format: in vivo, rat; details: for ED60: dose causing 60% inhibition of granulation tissue weight
Experimental: The test compound was dissolved in acetone and aliquots of varying concentrations were injected into cotton pellets. The pellets were dried and then one pellet was implanted beneath the skin of each test rat. Six days later, the animals were sacrificed and the granulation tissue (granuloma) which formed in and around the implanted pellet was removed, dried and weighed. In addition, the thymi and adrenals were removed and weighed.

[3] = rat, in vivo, sc, 0.003 mg/kg/day
[4] = rat, in vivo, sc, 0.01 mg/kg/day
[5] = rat, in vivo, sc, 0.03 mg/kg/day
[6] = rat, in vivo, sc, 0.1 mg/kg/day
[7] = rat, in vivo, sc, 0.3 mg/kg/day
[8] = dose causing 50% inhibition of granulation tissue weight
[9] = Table VII, 3 mg/kg/day s.c., three days
[10] = Table VII, 10 mg/kg/day s.c., three days
[11] = Table VII, 30 mg/kg/day s.c., three days
[12] = Table VII, 100 mg/kg/day s.c., three days
[13] = Table X, betamethasone 17-valerate = 1
[14] = chloromethyl 11β-hydroxy-17α-isopropoxycarbonyloxyandrost-4-en-3-one-17β-carboxylate = 1

CCC(=O)O[C@]1(C(=O)CCl)[C@@H](C)C[C@H]2[C@@H]3CCC4=CC(=O)C=C[C@]4(C)[C@@]3(F)[C@@H](O)C[C@@]21C [Clobetasol 17-propionate, reference compound]
Relative Potency (TED40) ([1]; rat, in vivo): 8.6 | Relative Potency (TED50) ([1]; rat, in vivo): 11.2 | TED40 ([1]; rat, in vivo, sc): 0.035 mg | TED50 ([1]; rat, in vivo, sc): 0.052 mg | Body weight gain [1, 3]: 18.3 ± 0.6 g | Thymus wt. [1, 3]: 537 ± 28 mg | Thymus wt. Inhibition [1, 3]: 2.4% | Body weight gain [1, 4]: 15.5 ± 1.1 g | Thymus wt. [1, 4]: 498 ± 15 mg | Thymus wt. Inhibition [1, 4]: 9.5% | Body weight gain [1, 5]: 12.3 ± 1.3 g | Thymus wt. [1, 5]: 363 ± 22 mg | Thymus wt. Inhibition [1, 5]: 34.0% | Body weight gain [1, 6]: -0.4 ± 1.3 g | Thymus wt. [1, 6]: 149 ± 9 mg | Thymus wt. Inhibition [1, 6]: 72.9% | Body weight gain [1, 7]: -14.3 ± 1.3 g | Thymus wt. [1, 7]: 63 ± 3 mg | Thymus wt. Inhibition [1, 7]: 88.5% | Body wt. gain ([2]; Table V-a, 1 μg/pellet): 33.0 ± 1.2 g | Granulation tissue Dry wt. ([2]; Table V-a, 1 μg/pellet): 42.0 ± 5.8 mg | Granulation tissue Dry wt. Inhibition ([2]; Table V-a, 1 μg/pellet): 47.6% | Granulation tissue Wet wt. ([2]; Table V-a, 1 μg/pellet): 401 ± 29 mg | Granulation tissue Wet wt. Inhibition ([2]; Table V-a, 1 μg/pellet): 23.6% | Thymus wt. ([2]; Table V-a, 1 μg/pellet): 478 ± 22 mg | Thymus wt. (Decrease %) ([2]; Table V-a, 1 μg/pellet): (3.4) % | Body wt. gain ([2]; Table V-a, 3 μg/pellet): 24.9 ± 1.8 g | Granulation tissue Dry wt. ([2]; Table V-a, 3 μg/pellet): 43.1 ± 8.9 mg | Granulation tissue Dry wt. Inhibition ([2]; Table V-a, 3 μg/pellet): 46.2% | Granulation tissue Wet wt. ([2]; Table V-a, 3 μg/pellet): 402 ± 40 mg | Granulation tissue Wet wt. Inhibition ([2]; Table V-a, 3 μg/pellet): 23.4% | Thymus wt. ([2]; Table V-a, 3 μg/pellet): 449 ± 21 mg | Thymus wt. (Decrease %) ([2]; Table V-a, 3 μg/pellet): (9.3) % | Body wt. gain ([2]; Table V-a, 10 μg/pellet): 25.0 ± 2.1 g | Granulation tissue Dry wt. ([2]; Table V-a, 10 μg/pellet): 37.9 ± 6.8 mg | Granulation tissue Dry wt. Inhibition ([2]; Table V-a, 10 μg/pellet): 52.7% | Granulation tissue Wet wt. ([2]; Table V-a, 10 μg/pellet): 364 ± 25 mg | Granulation tissue Wet wt. Inhibition ([2]; Table V-a, 10 μg/pellet): 30.7% | Thymus wt. ([2]; Table V-a, 10 μg/pellet): 322 ± 22 mg | Thymus wt. (Decrease %) ([2]; Table V-a, 10 μg/pellet): (34.9) % | Body wt. gain ([2]; Table V-a, 30 μg/pellet): 24.8 ± 1.1 g | Granulation tissue Dry wt. ([2]; Table V-a, 30 μg/pellet): 25.5 ± 2.1 mg | Granulation tissue Dry wt. Inhibition ([2]; Table V-a, 30 μg/pellet): 68.2% | Granulation tissue Wet wt. ([2]; Table V-a, 30 μg/pellet): 320 ± 10 mg | Granulation tissue Wet wt. Inhibition ([2]; Table V-a, 30 μg/pellet): 39.0% | Thymus wt. ([2]; Table V-a, 30 μg/pellet): 174 ± 26 mg | Thymus wt. (Decrease %) ([2]; Table V-a, 30 μg/pellet): (64.8) % | Body wt. gain ([2]; Table V-a, 100 μg/pellet): 15.9 ± 1.0 g | Granulation tissue Dry wt. ([2]; Table V-a, 100 μg/pellet): 23.9 ± 3.3 mg | Granulation tissue Dry wt. Inhibition ([2]; Table V-a, 100 μg/pellet): 70.2% | Granulation tissue Wet wt. ([2]; Table V-a, 100 μg/pellet): 325 ± 12 mg | Granulation tissue Wet wt. Inhibition ([2]; Table V-a, 100 μg/pellet): 38.1% | Thymus wt. ([2]; Table V-a, 100 μg/pellet): 84 ± 3 mg | Thymus wt. (Decrease %) ([2]; Table V-a, 100 μg/pellet): (83.0) % | ED50 [2, 8]: >3 μg/pellet | ED60 [2]: >10 μg/pellet

CC(C)OC(=O)O[C@]1(C(=O)OCCl)CC[C@H]2[C@@H]3CCC4=CC(=O)C=C[C@]4(C)[C@H]3[C@@H](O)C[C@@]21C [chloromethyl 11β-hydroxy-17α-isopropoxycarbonyloxy-androsta-1,4-dien-3-one-17β-carboxylate]
Body weight gain [1, 9]: 9.0 ± 0.9 g | Thymus [1, 9]: 377 ± 16 mg | Thymus Inhibition [1, 9]: 20.0% | Body weight gain [1, 10]: 6.2 ± 0.7 g | Thymus [1, 10]: 312 ± 23 mg | Thymus Inhibition [1, 10]: 33.8% | Body weight gain [1, 11]: 4.8 ± 1.4 g | Thymus [1, 11]: 257 ± 24 mg | Thymus Inhibition [1, 11]: 45.4% | Body weight gain [1, 12]: 0.3 ± 1.6 g | Thymus [1, 12]: 161 ± 19 mg | Thymus Inhibition [1, 12]: 65.8% | Relative Potency (TED40) [1, 13]: 0.02 | Relative Potency (TED50) [1, 13]: 0.02 | TED40 ([1]; Table X, dose required to achieve 40% inhibition of thymi weight, subcutaneous): 16.2 mg | TED50 ([1]; Table X, dose required to achieve 50% inhibition of thymi weight, subcutaneous): 35.3 mg | Relative Potency (TED40) ([1]; Table XII, hydrocortisone 17-butyrate = 1): 1/12 | TED40 ([1]; Table XII, thymus inhibition effect, subcutaneously): 16.2 mg/kg | Body wt. gain ([2]; Table IV, 30 μg/pellet): 32.4 ± 1.2 g | Granulation tissue Dry wt. ([2]; Table IV, 30 μg/pellet): 51.0 ± 2.8 mg | Granulation tissue Dry wt. Inhibition ([2]; Table IV, 30 μg/pellet): 37.2% | Granulation tissue Wet wt. ([2]; Table IV, 30 μg/pellet): 432 ± 15 mg | Granulation tissue Wet wt. Inhibition ([2]; Table IV, 30 μg/pellet): 23.7% | Thymus wt. ([2]; Table IV, 30 μg/pellet): 523 ± 26 mg | Body wt. gain ([2]; Table IV, 100 μg/pellet): 35.0 ± 1.5 g | Granulation tissue Dry wt. ([2]; Table IV, 100 μg/pellet): 41.1 ± 5.8 mg | Granulation tissue Dry wt. Inhibition ([2]; Table IV, 100 μg/pellet): 49.4% | Granulation tissue Wet wt. ([2]; Table IV, 100 μg/pellet): 417 ± 27 mg | Granulation tissue Wet wt. Inhibition ([2]; Table IV, 100 μg/pellet): 26.3% | Thymus wt. ([2]; Table IV, 100 μg/pellet): 537 ± 31 mg | Body wt. gain ([2]; Table IV, 300 μg/pellet): 34.4 ± 1.1 g | Granulation tissue Dry wt. ([2]; Table IV, 300 μg/pellet): 38.1 ± 5.9 mg | Granulation tissue Dry wt. Inhibition ([2]; Table IV, 300 μg/pellet): 53.1% | Granulation tissue Wet wt. ([2]; Table IV, 300 μg/pellet): 369 ± 18 mg | Granulation tissue Wet wt. Inhibition ([2]; Table IV, 300 μg/pellet): 34.8% | Thymus wt. ([2]; Table IV, 300 μg/pellet): 525 ± 28 mg | Body wt. gain ([2]; Table IV, 1000 μg/pellet): 29.4 ± 1.5 g | Granulation tissue Dry wt. ([2]; Table IV, 1000 μg/pellet): 18.5 ± 2.4 mg | Granulation tissue Dry wt. Inhibition ([2]; Table IV, 1000 μg/pellet): 77.2% | Granulation tissue Wet wt. ([2]; Table IV, 1000 μg/pellet): 289 ± 12 mg | Granulation tissue Wet wt. Inhibition ([2]; Table IV, 1000 μg/pellet): 48.9% | Thymus wt. ([2]; Table IV, 1000 μg/pellet): 423 ± 26 mg | ED50 ([2]; Table XII, anti-inflammatory effect in cotton pellet granuloma): 119 μg/pellet | Relative potency (ED40) [2, 14]: 6.5 | Relative potency (ED60) [2, 14]: 2.3 | ED40 ([2]; dose causing 40% inhibition of granulation tissue weight): 47 μg/pellet | ED50 [2, 8]: 119 μg/pellet | ED60 [2]: 301 μg/pellet
